pIC50: −log10 of the molar value. Read-outs that look alike come from different tables or passages of the source.
Molecular target: T1, hT2R54 (Homo sapiens, UniProt P59534)
T1 construct: expressed in transfected cells; it overexpresses a promiscuous G protein
T1 sequence (P59534 1-338): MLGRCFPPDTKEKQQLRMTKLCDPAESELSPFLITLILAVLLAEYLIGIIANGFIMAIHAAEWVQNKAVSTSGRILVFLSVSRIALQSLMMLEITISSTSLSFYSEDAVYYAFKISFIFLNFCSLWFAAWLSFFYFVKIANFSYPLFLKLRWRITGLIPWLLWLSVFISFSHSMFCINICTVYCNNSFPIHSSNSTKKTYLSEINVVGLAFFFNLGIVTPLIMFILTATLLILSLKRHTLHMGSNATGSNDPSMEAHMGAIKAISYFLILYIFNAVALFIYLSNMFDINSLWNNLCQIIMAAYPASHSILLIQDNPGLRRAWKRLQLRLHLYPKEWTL
Experiment: Cell-based assay for measuring hT2R54 inhibition (FLIPR calcium, Fluo4AM, acetaminophen as bitter agonist)
Conditions: cells stably expressing hT2R54 and a promiscuous G protein, read-out: hT2R54 IC50
In short: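 Cells stably co-expressing hT2R54 and a promiscuous G protein were loaded with Fluo4AM and given acetaminophen dose series, alone or with fixed concentrations of test compound. On FLIPR, baseline was recorded for 10 s and fluorescence for 3 min after addition. IC50 is the concentration halving the acetaminophen-alone response.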

pIC50 (Table 2)	pIC50 (Table 4)	SMILES	further results
6.70		COc1cc2c(cc1NC(=O)CN1CCN(C(=O)c3cc(C)oc3C)CC1)OCO2 [compound 384]	
6.15		COc1cc2c(cc1NC(=O)CN1CCN(C(=O)c3cc[nH]n3)CC1)OCO2 [compound 385]	
6.70		COc1cc2c(cc1NC(=O)CN1CCN(C(=O)c3ccoc3)CC1)OCO2 [compound 386]	
< 5.00		COc1cc2c(cc1NC(=O)CN1CCN(C(=O)c3cnon3)CC1)OCO2 [compound 387]	
5.59		COc1cc2c(cc1NC(=O)CN1CCN(C(=O)c3ncn[nH]3)CC1)OCO2 [compound 388]	
6.40		COc1cc2c(cc1NC(=O)CN1CCN(C(=O)c3cc(C)on3)CC1)OCO2 [compound 389]	
5.57		COc1cc2c(cc1NC(=O)CN1CCN(C(=O)c3n[nH]cc3C)CC1)OCO2 [compound 390]	
6.70		COc1cc2c(cc1NC(=O)CN1CCN(C(=O)c3nc(C)c[nH]3)CC1)OCO2 [compound 391]	
5.89		COc1cc2c(cc1NC(=O)CN1CCN(C(=O)c3c[nH]c(C)n3)CC1)OCO2 [compound 392]	
6.70		COc1cc2c(cc1NC(=O)CN1CCN(C(=O)c3ncc[nH]3)CC1)OCO2 [compound 393]	
7.00		COc1cc2c(cc1NC(=O)CN1CCN(C(=O)c3cc(C)c(C)o3)CC1)OCO2 [compound 395]	
7.00		COCc1ccc(C(=O)N2CCN(CC(=O)Nc3cc4c(cc3OC)OCO4)CC2)o1 [compound 396]	
6.11		COCc1cc(C(=O)N2CCN(CC(=O)Nc3cc4c(cc3OC)OCO4)CC2)no1 [compound 397]	
6.20		COc1cc2c(cc1NC(=O)CN1CCN(C(=O)c3ccc(CO)o3)CC1)OCO2 [compound 398]	
5.85		COc1cc2c(cc1NC(=O)CN1CCN(C(=O)c3ncn[nH]3)CC1)OCO2 [compound 399]	
6.52		COCc1cc(C(=O)N2CCN(CC(=O)Nc3cc4c(cc3OC)OCO4)CC2)no1 [compound 400]	
5.96		COc1cc2c(cc1NC(=O)CN1CCN(C(=O)[C@H]3CCC(=O)O3)CC1)OCO2 [compound 402]	
5.85		COc1cc2c(cc1NC(=O)C(C)N1CCN(C(C)=O)CC1)OCO2 (stereo not shown) [compound 403]	
6.52		COc1cc2c(cc1NC(=O)CN1CCN(C(=O)C3CCCC3)CC1)OCO2 [compound 404]	
6.00		COc1cc2c(cc1NC(=O)CN1CCN(C(=O)C3CCCCC3C)CC1)OCO2 (stereo not shown) [compound 405]	
5.74		COc1cc2c(cc1NC(=O)CN1CCN(C(=O)C3CCOC3)CC1)OCO2 (stereo not shown) [compound 406]	

pIC50 (Table 2)	pIC50 (Table 4)	SMILES	further results
< 5.00		COc1cc2c(cc1NC(=O)CN1CCN(C(=O)C3CCN(C)C3)CC1)OCO2 (stereo not shown) [compound 407]	
6.06		COc1cc2c(cc1NC(=O)CN1CCN(C(=O)CC3CCCO3)CC1)OCO2 (stereo not shown) [compound 408]	
6.30		COc1cc2c(cc1NC(=O)CN1CCN(C(=O)CC3CCCCO3)CC1)OCO2 (stereo not shown) [compound 409]	
5.94		COc1cc2c(cc1NC(=O)CN1CCN(C(C)=O)CC1)CCC2 [compound 410]	
6.77		CC(=O)c1cc2c(cc1NC(=O)C(C)N1CCN(C(=O)[C@@H]3CCCO3)CC1)OCCO2 (stereo partly shown) [compound 411]	
6.77		CC(=O)c1cc2c(cc1NC(=O)C(C)N1CCN(C(=O)[C@H]3CCCO3)CC1)OCCO2 (stereo partly shown) [compound 412]	
6.72		COCc1ccc(C(=O)N2CCN(C(C)C(=O)Nc3cc4c(cc3C(C)=O)OCCO4)CC2)cc1 (stereo not shown) [compound 413]	
5.12		CCc1cc2c(cc1NC(=O)CN1CCN(C(=O)C3CCCO3)CC1)OCO2 (stereo not shown) [compound 414]	
		CC(=O)c1cc2c(cc1NC(=O)CN1CCN(CC3CCCO3)CC1)OCO2 (stereo not shown) [compound 415]	pIC50 (Table 3): 5.89
		COc1cc2c(cc1NC(=O)CN1CCN(CC3CCCO3)CC1)OCO2 (stereo not shown) [compound 416]	pIC50 (Table 3): 5.40
	6.36	CC(=O)c1cc2c(cc1NC(=O)CN1CCCCC1)OCO2 [compound 417]	
	6.74	CC(=O)c1cc2c(cc1NC(=O)CN1CCC(C)CC1)OCO2 [compound 418]	
	6.87	CCOC(=O)[C@H]1CCCCN1CC(=O)Nc1cc2c(cc1C(C)=O)OCO2 [compound 419]	
	7.00	CCOC(=O)[C@H]1CCCN1CC(=O)Nc1cc2c(cc1C(C)=O)OCO2 [compound 420]	
	6.73	CC(=O)c1cc2c(cc1NC(=O)CN1CCC(=O)CC1)OCO2 [compound 421]	
	7.30	CC(=O)c1cc2c(cc1NC(=O)CN1CCSCC1)OCO2 [compound 422]	
	6.00	CC(=O)c1cc2c(cc1NC(=O)CN1CCOc3ccccc31)OCO2 [compound 423]	
	5.80	CC(=O)c1cc2c(cc1NC(=O)CN1CCC(O)C1)OCO2 (stereo not shown) [compound 424]	
	6.19	COCCCN(C)CC(=O)Nc1cc2c(cc1C(C)=O)OCO2 [compound 425]	
	5.94	COCCN(C)CC(=O)Nc1cc2c(cc1C(C)=O)OCO2 [compound 426]	
	6.43	CCN(CCCOC)CC(=O)Nc1cc2c(cc1C(C)=O)OCO2 [compound 427]	

pIC50 (Table 2)	pIC50 (Table 4)	SMILES	further results
	6.19	CCOC(=O)C1CN(C(=O)OC(C)(C)C)CCN1CC(=O)Nc1cc2c(cc1C(C)=O)OCO2 (stereo not shown) [compound 428]	
	5.89	CC(=O)c1cc2c(cc1NC(=O)CN1CCCC(NC(=O)OC(C)(C)C)C1)OCO2 (stereo not shown) [compound 429]	
	6.79	CC(=O)c1cc2c(cc1NC(=O)CN1CCC(NC(=O)OC(C)(C)C)CC1)OCO2 [compound 430]	
	6.05	CC(=O)c1cc2c(cc1NC(=O)C(C)N1CCN(C(=O)OC(C)(C)C)CC1)OCO2 (stereo not shown) [compound 431]	
	5.72	CC(=O)c1cc2c(cc1NC(=O)CCN1CCOCC1)OCO2 [compound 432]	
	6.66	CC(=O)c1cc2c(cc1NC(=O)C(C)N1CCC(O)CC1)OCCO2 (stereo not shown) [compound 433]	
	6.61	COC(=O)c1cc2c(cc1NC(=O)CN1CCC(O)CC1)OCO2 [compound 434]	
	6.38	COC(=O)c1cc2c(cc1NC(=O)CN1CCC(OC)CC1)OCO2 [compound 435]	
	6.54	COC(=O)c1cc2c(cc1NC(=O)CN1CCOCC1)OCO2 [compound 436]	
	~6.00	COC(=O)c1cc2c(cc1NC(=O)CN1CCN(C(=O)OC(C)(C)C)CC1)OCO2 [compound 437]	
	6.70	COC(=O)c1cc2c(cc1NC(=O)CN1CCOCC1)OCCO2 [compound 438]	
	~5.70	COC(=O)c1cc2c(cc1NC(=O)CN1CCOCC1)CCCC2 [compound 439]	
	5.74	COc1cc2c(cc1NC(=O)CN1CCCCC1)OCO2 [compound 440]	
	6.00	COc1cc2c(cc1NC(=O)C(C)N1CCOCC1)OCO2 (stereo not shown) [compound 441]	
	6.70	COc1cc2c(cc1NC(=O)CN1CCSCC1)OCO2 [compound 442]	
	6.49	COc1cc2c(cc1NC(=O)CN1CC(C)OC(C)C1)OCO2 (stereo not shown) [compound 443]	
	6.30	CCOC(=O)C1CN(CC(=O)Nc2cc3c(cc2OC)OCO3)CCO1 (stereo not shown) [compound 444]	
	6.28	CCOC(=O)C1COCCN1CC(=O)Nc1cc2c(cc1OC)OCO2 (stereo not shown) [compound 445]	
	6.72	COc1cc2c(cc1NC(=O)C(C)N1CCN(C(=O)OC(C)(C)C)CC1)OCO2 (stereo not shown) [compound 446]	
	< 5.00	CCc1cc2c(cc1NC(=O)CN1CCOCC1)OCO2 [compound 447]	
	6.15	CCc1cc2c(cc1NC(=O)CN1CCN(C(=O)OC(C)(C)C)CC1)OCO2 [compound 448]	

SMILES	pIC50 (Table 2)	pIC50 (Table 4)	further results
COc1cc2c(cc1NC(=O)CN1CCN(C(=O)Cc3ccoc3)CC1)OCO2 [compound 401]	6.89		

Source: US12295396B2, “Antagonists of T2R54 and compositions and uses thereof” (Firmenich Incorporated, priority 2018, dated 2025)
